In PubChem BioAssay AID588377 (NMMLSC, 2011):

Biological target: Cell division control protein 42 homolog (Homo sapiens) (UniProt P60953)
Assay: wildtype Cdc42 GTP-binding inhibitors, SAR follow-up, biochemical, multiplex bead flow cytometry, round 1 (AID 588377)
Conditions: GST-Cdc42 wt beads, fluorescent GTP binding

Cell division control protein 42 homolog (Homo sapiens), sequence (P60953 whole entry, looked up): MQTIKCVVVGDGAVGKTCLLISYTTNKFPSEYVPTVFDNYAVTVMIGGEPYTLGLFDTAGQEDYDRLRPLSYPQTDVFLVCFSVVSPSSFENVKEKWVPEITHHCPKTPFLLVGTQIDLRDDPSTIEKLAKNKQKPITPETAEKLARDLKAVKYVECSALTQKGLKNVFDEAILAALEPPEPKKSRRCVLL

Compound	EC50 [µM]
NS(=O)(=O)c1ccc(N2N=C(c3ccccc3)CC2c2ccccc2)cc1 (stereo not drawn)	4.13
O=C(C#Cc1ccccc1)c1cccc([N+](=O)[O-])c1	3.94
COc1ccc(C2CC(c3ccccc3)=NN2c2ccc(S(N)(=O)=O)cc2)cc1 (stereo not drawn)	0.823
